Data on four compounds can be found in patent US9555018B2, “Synergistic combinations of organic acid useful for controlling microoganisms in industrial processes” (Hercules Incorporated, priority 2013, dated 2017).

In brackets after ≈: the same amount, converted by molar mass. Where two headings read alike, the source gives them in different places.

For experiment [1], the system named is Lactobacillus plantarum. The experiment can be described thus: Minimal Inhibitory Concentration (MIC), two-fold dilution series in 96 well microplate, antimicrobial used alone. Format: cell-based. The conditions noted are these: for MIC: Lactiplantibacillus plantarum; for Propionic Acid MIC (QB) used alone: sodium propionate per text. From the text: While there are various methods known to individuals skilled in the art for measuring levels of antimicrobial activity, in the following examples the endpoint used is known as the Minimal Inhibitory Concentration, or MIC. This is the lowest concentration of a substance or substances which can achieve complete inhibition of growth.
In order to determine the Minimal Inhibitory Concentration, a two-fold dilution series of the antimicrobial is constructed with the dilutions being made in growth media. The dilutions are made in a 96 well microplate such that each well has a final volume of 280 μl of media and antimicrobial. The first well has, for example, a concentration of 1000 μM antimicrobial, the second 500 μM, the third 250 μM, and so forth, with the 12th and final well in the row having no antimicrobial at all and serving as a positive growth control. After the dilution series is constructed the wells receive an inoculum of microbe suspended in growth media such that the final concentration of microbes in the well is ˜5×10^5 cfu/ml. In these examples the test microbe used is Lactobacillus plantarum. The cultures are incubated at 37° C. for 18-24 hours, and the wells scored as positive or negative for growth based on a visual examination for turbid wells, with turbidity being an indicator of growth.

In experiment [2] the test system is Weisella confusa. The conditions noted are these: background statement; cited from earlier work.
Experiment [3] deals with fermentation. Conditions: background statement; cited from earlier work.

With `O=C(O)CC(O)(CC(=O)O)C(=O)O` [Citric Acid, citric acid], the MIC (commonly the lowest concentration found to suppress growth) in experiment [1] (pH 5, Example 2, read-out: Citric Acid MIC (QA) used alone) amounted to 25 mg/mL (≈ 130 mM); in experiment [1] (pH 5, Example 4, read-out: Citric acid MIC (QA) used alone), 25 mg/mL (≈ 130 mM); in experiment [1] (pH 6, Example 1, 37° C., 18-24 hours, read-out: Citric Acid MIC (QA) used alone), 100 mg/mL (≈ 520 mM). For the same compound, the “Citric Acid MIC (QA) used alone” value in experiment [1] (pH 5, Example 2) is recorded as 25000 ppm; in experiment [1] (pH 5, Example 4) it was 25000 ppm; in experiment [1] (pH 6, Example 1, 37° C., 18-24 hours) it was 100000 ppm; in experiment [1] (pH 6, Example 3) it was 100000 ppm; in experiment [1] (pH 6, Example 3, listed as citric acid) it was 100,000 ppm.
With `O=C([O-])c1ccccc1.[K+]` [Potassium Benzoate, potassium benzoate], the “Potassium benzoate MIC (QB) used alone” value in experiment [1] (pH 5, Example 4, listed as Potassium benzoate) was 3125 ppm; in experiment [1] (pH 5, Example 4, listed as potassium benzoate) it was 3,125 ppm; in experiment [1] (pH 6, Example 3), 100000 ppm; in experiment [1] (pH 6, Example 3, listed as potassium benzoate), 100,000 ppm.
For `CCC(=O)[O-].[Na+]` [Sodium Propionate, sodium propionate], the “Sodium Propionate MIC (QB) used alone” value is reported as 100000 ppm in experiment [1] (pH 5, Example 2) and 100,000 ppm in experiment [1] (pH 5, Example 2, listed as sodium propionate). In addition, the “Propionic Acid MIC (QB) used alone” value in experiment [1] (pH 6, Example 1) was 100,000 ppm; in experiment [1] (pH 6, Example 1, listed as Propionic Acid), 100000 ppm.
Virginiamycin: the “concentration required to inhibit growth of Weisella confusa” value in experiment [2] was “over 25 mg/L”. Also, the “concentration that will suppress fermentation” value in experiment [3] is “over 2 mg/L”.
